Experimental data from patent publication US20250262229A1, “APPLICATION OF PHD2 INHIBITOR IN PREPARATION OF DRUGS FOR PREVENTION AND TREATMENT OF PLATELET THROMBUS” (Nankai University, priority 2024, published 2025).

Experiments:
[1] = target: T1, PHD2 protein (Homo sapiens, UniProt Q9GZT9); assay: PHD2 enzyme activity, 2-oxogalarate-phenylenediamine method; type: biochemical; set-up: purchased Abcam ab132273
Description: 1 micromole per liter (μM) PHD2 inhibitor is incubated with 100 micrograms per milliliter (μg/mL) PHD2 protein (Abcam, Cat. No. ab132273) at 4° C. for 8 hours, and its inhibitory effect on PHD2 enzyme activity is determined according to the 2-oxogalarate-phenylenediamine method.
100 μL of PHD2 enzyme solution incubated with the PHD2 inhibitor is taken and 100 μL of reaction substrate (300 μM of 2-oxogalarate, 150 μM of Fe^2+) is added, followed by 100 μL of 0.5 moles (M) of hydrogen chloride (HCl) and 10 mg/mL of o-phenylenediamine, and the reaction is carried out at 95° C. for 15 minutes after mixing, so as to obtain a reaction product. The reaction product is centrifuged to taken the supernatant, 10 μL of 1.25 M of sodium hydroxide (NaOH) is added to terminate the reaction, and the fluorescence value of the reaction is determined using 340 nanometers (nm) excitation at the emission wavelength of 420 nm, the results are shown in FIG. 3B.

[2] = target: T1, PHD2 protein; assay: Surface plasmon resonance (SPR) interaction analysis with PHD2; type: binding; settings: Biacore T200, CM5 chip, 1.56 μM to 200 μM, read-out: dissociation constants KD with PHD2 protein
Description: The interaction between these active natural products and recombinant human PHD2 protein is analyzed by surface plasmon resonance (SPR) technique using a Biacore™ T200 surface plasmon resonance analyzer from GE healthcare. The CM5 chip is selected, the purified PHD2 protein is immobilized on the channel of the chip, and the active natural product solution as a mobile phase is flowed through the chip, with the concentration ranging from 1.56 μM to 200 μM. The flow rate of mobile phase is 30 μL/min, and the dissociation is monitored for 150 seconds.

[3] = test system: Pseudomonas aeruginosa infected mice; assay: Blood coagulation function in mice infected with Pseudomonas aeruginosa; type: in vivo, ICR (CD-1) mice; settings: plasma 24 hours after infection; polydatin 10, 20, 40 mg/kg i.p.; aspirin 30 mg/kg gavage; Daprodustat 15 mg/kg i.p.; vs model group
Description: ICR (CD-1) male mice are taken and randomly divided into 7 groups (6 mice in each group), which are a blank control group, a model group, an aspirin positive control group (gavage at 30 mg/kg), a Daprodustat-positive control group (intraperitoneally injected at 15 mg/kg), and low, medium and high doses of polydatin group (intraperitoneally injected at 10 mg/kg, 20 mg/kg, 40 mg/kg). Mice are anesthetized by intraperitoneal injection of 1% pentobarbital sodium (40 mg/kg). Activated Pseudomonas aeruginosa (1×10^7/20 μL) is added dropwise into the nasal cavity of mice in the model group and each administration group, and an equal amount of physiological saline is dropped into the blank control group. The respective groups are administered at 0 and 8 hours after molding, respectively. 24 hours after infection, plasma is obtained by blood sampling from mouse eyeballs, and four indexes of coagulation (prothrombin time, activated partial […] and fibrinogen) are measured by a semi-automatic coagulation analyzer.

[4] = test system: soft tissue injury in rats; assay: Blood microcirculation disorder induced by acute soft tissue injury in rats; type: in vivo, SD rats; settings: N-acetylcysteine 70 mg/kg/d i.p., ginsenoside CK 25 and 12.5 mg/kg/d i.p., vs model group; for whole blood viscosity: low, medium and high shear rate
Description: SD male rats are taken and randomly divided into a blank control group, a model group, a positive control group (N-acetylcysteine, intraperitoneally injected at 70 milligrams per kilogram per day abbreviated as mg/kg/d), and high and low dose ginsenoside CK groups (intraperitoneally injected at 25 mg/kg/d and 12.5 mg/kg/d). The blank control group and the model group are given the same volume of sterile drinking water in the same manner. The molding is investigated three days after pre-administration. The rats are first anesthetized with 1% pentobarbital sodium (40 mg/kg), and the hair of the right buttocks and posterior thighs of the anesthetized rats are removed and fixed on the plate of an acute soft tissue injury modeling device. A 100 g weight is selected to impact the lateral aspect of the mid-right calf with five free-falls from a height of 100 centimeters (cm) causing soft tissue injury. The rats with successful modeling are continued to be administered for 4 days, and 1 hour after the last administration, the rats are anesthetized, blood is collected from the abdominal aorta with a blood viscometer to detect the viscosity of whole blood of the rats with high shear rate [200 s], medium shear rate [30 s], low shear rate [3 s], and low shear rate [1 s]. Coagulation parameters, such as erythrocyte aggregation index, erythrocyte packed-cell volume, platelet number and mean platelet volume, are determined by using a blood cell analyzer.

[5] = test system: LPS-induced DIC model in mice; assay: LPS-induced disseminated intravascular coagulation (DIC) model in mice; type: in vivo; settings: aspirin 10 mg/kg taken orally, Daprodustat 10 mg/kg intraperitoneal injection
Description: The sh-PHD2 mice and sh-ctrl blank mice are randomly divided into a blank group and a model group, with 6 mice in each group. The model group is injected intraperitoneally with 10 milligrams per kilogram (mg/kg) lipopolysaccharide abbreviated as LPS (Beijing Solarbio Science & Technology Co., Ltd., Cat. No. L8880) to induce the mice to establish a disseminated intravascular coagulation (DIC) model, and the blank group is injected intraperitoneally with the corresponding volume of physiological saline. After 2 hours, the mice are anesthetized by intraperitoneal injection of 1% pentobarbital sodium (40 mg/kg), and the tail is cut at a site of 3 millimeters (mm) from the tip of the tail of each mouse, and the tail is placed vertically in 37° C. physiological saline immediately after the first drop of blood is sucked up on filter paper to record the tail bleeding time.
In addition to the blank group, the other groups use the method of the embodiment 1 to prepare the LPS-induced DIC model in mice, and the administration group is given drug intervention 1 hour before modeling.

[6] = test system: binding of collagen-VWF; assay: Collagen-VWF binding assay; settings: 1 μM IOX2-treated PHD2 protein, 10 μg/mL type I collagen; VWF antibody detection
Description: (§1) The binding of platelets to collagen occurs mainly through VWF as a junction. PHD2 promotes the hydroxylation of collagen to form a three-dimensional structure to better bind to VWF. To verify the above principle, 10 μg/mL type I collagen is mixed with 1 μM IOX2-treated PHD2 protein and inoculated into a black 96-well plate, incubated at 4° C. overnight. Parallel triplicates, for the first one, SD rat platelets (2×10^7 cells/mL) are added and incubated at 37° C. for 90 minutes, after full washing with PBS, the fixed platelets are stained with Calcein-AM dye. For the second one, the primary antibody of VWF (Beijing Boaosen Biology technology Co., LTD., bs-20428R) is incubated at 4° C. overnight, after the excess primary antibody is washed away by PBS, the fluorescent secondary antibody (Abcam, ab150077) is incubated at 37° C. for 1 hour, and the excess secondary antibody is washed away. For the third one, SD rat plasma is added, incubated at room temperature for 4 hours, and then SD rat platelets (2×10^7 cells/mL) are added, incubated at 37° C. for 90 minutes, after full washing with PBS, the fixed platelets are stained with Calcein-AM dye. The fluorescence values of respective groups are measured by a multifunctional microplate reader at the excitation wavelength of 488 nm and the emission wavelength of 525 nm.

[7] = test system: SD rat platelets; assay: Platelet adhesion to collagen on glass slides, fluorescence imaging analysis; type: cell-based; settings: IOX2 0.1 μM, 1 μM, 10 μM incubated with 100 μg/mL PHD2 protein; 10 μg/mL type I collagen
Description: Different doses of PHD2 inhibitor IOX2 (0.1 μM, 1 μM, 10 μM) are taken and incubated with 100 μg/mL PHD2 protein at 4° C. for 8 hours, then 10 μg/mL type I collagen is mixed with the above solution and added dropwise to glass slides, and incubated at 4° C. overnight. SD rat platelets (2×10^7 cells/mL) are then inoculated on the glass slides and incubated at 37° C. for 90 minutes. After being fully washed by PBS, the fixed platelets are stained with Calcein-AM dye, fluorescence imaging analysis is performed using fluorescence microscope (Leica TCS SP8, Germany), and statistical analysis is performed on platelets with collagen adhesion using Image J software. The results are shown as in FIG. 5A.

[8] = test system: SD rat platelets; assay: Collagen-platelet adhesion assay; type: cell-based; settings: 1 μM IOX2-treated PHD2 protein, 10 μg/mL type I collagen
Description: as §1

[9] = test system: SD rat platelets; assay: Collagen-VWF-platelet adhesion assay; type: cell-based; settings: 1 μM IOX2-treated PHD2 protein, 10 μg/mL type I collagen; SD rat plasma then platelets
Description: as §1

T1 sequence (Q9GZT9 whole entry): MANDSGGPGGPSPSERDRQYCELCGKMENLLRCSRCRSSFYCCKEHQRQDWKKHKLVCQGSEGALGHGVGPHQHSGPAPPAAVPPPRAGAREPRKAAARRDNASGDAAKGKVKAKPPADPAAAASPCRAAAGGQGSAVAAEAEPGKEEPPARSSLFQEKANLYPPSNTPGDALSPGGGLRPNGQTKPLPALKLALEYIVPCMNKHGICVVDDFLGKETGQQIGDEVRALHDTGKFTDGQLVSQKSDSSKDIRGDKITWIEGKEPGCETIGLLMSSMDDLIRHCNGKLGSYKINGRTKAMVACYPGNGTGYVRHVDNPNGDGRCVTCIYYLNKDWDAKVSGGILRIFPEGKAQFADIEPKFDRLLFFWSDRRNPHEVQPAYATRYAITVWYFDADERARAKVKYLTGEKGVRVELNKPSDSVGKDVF

`OC[C@H]1O[C@@H](Oc2cc(O)cc(/C=C/c3ccc(O)cc3)c2)[C@H](O)[C@@H](O)[C@@H]1O` [polydatin] was tested, and the “inhibition of PHD2 enzyme activity” value ([1]; polydatin at 0.1 μM, 1 μM, 10 μM) was “inhibit the PHD2 enzyme activity in a concentration gradient”, the Kd [2] was 23.5 µM and the “activated partial thrombin time” value [3] was “significantly prolong”. The “fibrinogen content in blood” value [3] was “reduced”, the prothrombin time [3] was “significantly prolong” and the thrombin time [3] was “significantly prolong”.
In the case of `CC(C)=CCC[C@](C)(O[C@@H]1O[C@H](CO)[C@@H](O)[C@H](O)[C@H]1O)[C@H]1CC[C@]2(C)[C@@H]1[C@H](O)C[C@@H]1[C@@]3(C)CC[C@H](O)C(C)(C)[C@@H]3CC[C@]12C` [ginsenoside CK], the “inhibition of PHD2 enzyme activity” value ([1]; ginsenoside CK at 0.5 μM, 5 μM, 50 μM) is reported as “inhibit the PHD2 enzyme activity in a concentration gradient”, the Kd [2] is reported as 18 µM and the erythrocyte aggregation index [4] is reported as “significantly reduce”. For the same compound, the erythrocyte packed-cell volume [4] was “significantly reduce”, the mean platelet volume [4] was “improved” and the platelet number [4] was “significantly reduce”. For the same compound, the whole blood viscosity [4] was “improved to a certain extent”.
`CC(=O)Oc1ccccc1C(=O)O` [aspirin] was tested, and the “pulmonary thrombi, Masson staining of lung tissues” value [5] was “significantly inhibit the formation of thrombus”, the tail bleeding time ([5]; vs LPS group) was “significantly increase” and the tail bleeding volume ([5]; vs LPS group) was “significantly increase”.
`CC(=O)N[C@@H](CS)C(=O)O` [N-acetylcysteine, reference compound] was tested, and the erythrocyte aggregation index [4] was “significantly reduce”, the erythrocyte packed-cell volume [4] was “significantly reduce” and the mean platelet volume [4] was “improved”. The platelet number [4] was “significantly reduce” and the whole blood viscosity [4] was “improved to a certain extent”.
For `O=C(O)CNC(=O)c1c(O)c2ccccc2n(Cc2ccccc2)c1=O` [IOX2, N-[[1,2-dihydro-4-hydroxy-2-oxo-1-(phenylmethyl)-3-quinolinyl]carbonyl]-glycine], the “binding of collagen-VWF” value [6] was “affecting the binding of collagen-VWF”, the “platelet adhesion to collagen (fluorescence imaging)” value [7] was “inhibits platelet adhesion to collagen in a concentration-dependent manner” and the PHD2-mediated collagen-platelet adhesion [8] was “significantly reduces the occurrence of PHD2-mediated platelet adhesion”. For the same compound, the collagen-VWF-platelet adhesion [9] was “blocking the binding of collagen-VWF-platelet adhesion”.
